Results published in patent publication US20020082254A1, “Compounds for treating disorders where a decreased level of plasma FFA is desired” (priority 2000, published 2002).

What was measured:
[1] = target: T1, Hepatic lipase (HL) (Homo sapiens, UniProt P11150); test: Hepatic lipase (HL) inhibition assay, 3H-triolein substrate; type: biochemical; conditions: read-out: HL inhibition (% inh. at 50 μM)
T1 sequence (P11150 23-499): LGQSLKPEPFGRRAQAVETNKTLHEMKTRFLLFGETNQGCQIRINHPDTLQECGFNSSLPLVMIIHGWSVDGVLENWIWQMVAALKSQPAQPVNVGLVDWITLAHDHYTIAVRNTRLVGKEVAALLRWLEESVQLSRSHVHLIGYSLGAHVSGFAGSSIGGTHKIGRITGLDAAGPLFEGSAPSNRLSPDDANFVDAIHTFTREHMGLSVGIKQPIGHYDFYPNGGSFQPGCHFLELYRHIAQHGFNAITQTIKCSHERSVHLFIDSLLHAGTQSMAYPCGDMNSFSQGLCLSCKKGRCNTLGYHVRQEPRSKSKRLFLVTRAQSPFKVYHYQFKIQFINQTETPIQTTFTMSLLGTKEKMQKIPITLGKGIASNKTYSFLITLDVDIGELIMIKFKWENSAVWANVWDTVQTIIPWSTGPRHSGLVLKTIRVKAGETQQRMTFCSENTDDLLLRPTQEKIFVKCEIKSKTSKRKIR
Text: (§1) Hepatic Lipase (HL) [classified as a triacylglycerol lipase, EC 3.1.1.3, in accordance with the Recommendations of the Nomenclature Committee of the International Union of Biochemistry and Molecular Biology (available on the World Wide Web at the following address: http://www.chem.qmw.ac.uk/iubmb/enzyme/)]
Materials. The hepatic lipase employed was obtained from Dr. Howard Wong of the University of California at Los Angeles (UCLA), USA, or produced and purified using the methods and a cell line provided by Dr. Wong's laboratory. ^3H-triolein (TO) from Amersham, Buckinghamshire, U.K., cat No. TRA191; 5-20 Ci/mmol dissolved in toluene and triolein (Sigma, Cat. No. T-1740). All other reagents are of commercial grade and obtained from various commercial sources.
50 μl TO in a 20 ml scintillation vial and evaporate with N2 for 5 minutes.
Add 1 ml 10% gum arabic and 1.25 ml Tris-Cl pH 8.5 and 2 ml MilliQ water.
Sonicate, on ice, 16 times for 30 seconds with a 30-second interval between cycles.
Add 2.5 ml of 5 M NaCl+2.5 ml BSA (10% in Milli Q, pH 8)+3.25 ml Milli Q
Total volume: 12.5 ml (for 80 reactions )
If an inhibitor is going to be used, it should be incubated with the 50 μl HL (of a 125 mU/ml solution) for 70 minutes at 25° C. A 5 μl aliquot from the incubated 50 μl is added to 150 μl assay mix+45 μl Milli Q™ water and mixed.
Incubate for exactly 30 minutes at 25° C.
Stop the reaction with Methanol:chloroform:heptane 10:9:7: 3.25 ml/vial, mix; then add 1.05 ml buffer (100 mM boric acid, 100 mM potassium carbonate pH 10.5), mix for 10 seconds per vial.
Centrifuge for 20 min/2000 rpm
Take 1 ml of the upper phase+10 ml scintillation fluid and mix by shaking by hand.
Scintillation count for 5 minutes per vial.

[2] = target: T2, Hormone-sensitive lipase (HSL) (Homo sapiens, UniProt Q05469); test: Hormone-sensitive lipase (HSL) inhibition assay, 3H-labeled triolein or MOME substrate; type: biochemical; conditions: read-out: HSL inhibition (IC50)
T2 sequence (Q05469 1-1076): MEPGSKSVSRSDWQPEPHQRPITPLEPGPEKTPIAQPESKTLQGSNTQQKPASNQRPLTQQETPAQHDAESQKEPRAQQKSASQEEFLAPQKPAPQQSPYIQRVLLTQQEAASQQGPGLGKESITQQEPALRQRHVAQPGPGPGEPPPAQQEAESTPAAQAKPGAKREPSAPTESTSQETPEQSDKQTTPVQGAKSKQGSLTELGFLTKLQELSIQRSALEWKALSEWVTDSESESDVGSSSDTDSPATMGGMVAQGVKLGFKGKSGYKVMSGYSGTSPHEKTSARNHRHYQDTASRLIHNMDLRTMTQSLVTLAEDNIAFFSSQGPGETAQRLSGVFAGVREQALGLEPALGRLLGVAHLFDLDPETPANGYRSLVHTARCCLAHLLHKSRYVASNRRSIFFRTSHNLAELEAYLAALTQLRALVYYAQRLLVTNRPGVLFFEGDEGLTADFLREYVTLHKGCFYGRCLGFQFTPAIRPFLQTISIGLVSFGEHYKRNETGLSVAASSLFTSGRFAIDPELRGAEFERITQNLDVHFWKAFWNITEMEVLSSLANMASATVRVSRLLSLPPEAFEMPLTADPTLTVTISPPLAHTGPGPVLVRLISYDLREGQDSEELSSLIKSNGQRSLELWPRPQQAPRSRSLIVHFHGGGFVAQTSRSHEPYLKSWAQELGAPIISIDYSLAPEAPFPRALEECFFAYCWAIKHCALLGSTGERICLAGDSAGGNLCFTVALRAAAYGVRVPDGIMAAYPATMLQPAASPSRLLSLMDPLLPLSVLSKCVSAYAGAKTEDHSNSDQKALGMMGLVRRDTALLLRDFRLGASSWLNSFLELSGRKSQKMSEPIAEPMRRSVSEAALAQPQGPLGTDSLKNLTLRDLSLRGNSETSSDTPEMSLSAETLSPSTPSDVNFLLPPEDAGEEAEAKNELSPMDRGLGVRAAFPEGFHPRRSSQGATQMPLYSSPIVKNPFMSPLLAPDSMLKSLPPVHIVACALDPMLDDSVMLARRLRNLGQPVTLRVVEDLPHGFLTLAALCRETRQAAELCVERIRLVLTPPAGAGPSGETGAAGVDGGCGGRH
Text: as §1, with “Hormone-sensitive lipase (HSL)” for “Hepatic Lipase (HL)”
Materials. The Hormone-sensitive lipase employed was provided by Dr. Cecilia Holm of Lund University, Sweden, or produced and purified by Novo Nordisk (NN) using the reagents and protocols employed by Dr. Holm. The substrates used are: ^3H-labeled triolein (TO) from Amersham, Buckinghamshire, U.K. cat No. TRA191; 5-20 Ci/mmol dissolved in toluene, triolein (Sigma, Cat. No. T-1740) and mono-oleoyl-2-O-mono-oleylglycerol (MOME) synthesized at (NN) using the protocols provided by Dr. Cecilia Holm, Lund University, Sweden. Phosphatidyl choline (PC) and phosphatidyl inositol (PI) are from Sigma (St Luis Mo., cat. Nos. P-3556 and P-5954, respectively). All other reagents are of commercial grade and obtained from various commercial sources.
Methods. The preparation of the substrates is as follows:
TO: 30 μl PC:PI (20 mg/ml solution of PC:PI 3:1 prepared in chloroform)+128 μl cold TO+15 μl ^3H-TO
MOME: 30 μl PC:PI+100 μl cold MOME+200 μl ^3H-MOME
They are then evaporated under a gentle stream of N2 followed by 20-30 minutes in a Speedvac™ apparatus to ensure the absence of residual solvent.
The samples are prepared as follows:
Samples/controls: 78 μl PED-BSA+20 μl inhibitor (various concentrations)+2 μl HSL (undiluted 0.12 mg/ml). If no inhibitors are being tested, the reaction contains 98 μl PED-BSA+2 μl HSL.
The samples are put on ice and then sonicated as follows:
With TO as substrate, add 2 ml potassium buffer (0.1M potassium phosphate, pH 7) and then sonicate twice for 1 minute, with a 1-minute interval between cycles. Add an additional 1 ml potassium buffer and sonicate 4 times for 30 seconds, with a 30 second interval in between cycles. To finish, add 1 ml BSA 20%-in potassium buffer, mix by inversion and store on ice until use.
With MOME as substrate: add 2 ml potassium buffer and then sonicate twice for 1 minute, with a 1 minute interval between cycles. Add 1.6 ml potassium buffer and sonicate 4 times for 30 seconds, with a 30-second interval between cycles. To finish, add 0.4 ml BSA 20%-buffer, mix by inversion and store on ice until use.
The enzyme reaction is run at 37° C. The substrate mix is added to the various reactions at 10 second intervals, incubated for 30 minutes in a water bath and then stopped with 3.25 ml of a solution containing CH3OH:CHCl3:heptane (10:9:7). After the addition of 1.05 ml potassium buffer pH10.5, the sample is vortexed thoroughly and centrifuged for 20 min at 2000 r.p.m. One ml of the upper phase is added to 10 ml scintillation fluid, and mixed thoroughly by shaking.
The samples are then counted, 5 min per vial, in a scintillation counter.

O=C(NN1CCc2ccccc2C1)Oc1ccccc1 [Example 1, (3,4-Dihydro-1H-isoquinolin-2-yl)-carbamic Acid Phenyl Ester] gave an inhibition at 50 µM [1] of 5% and an IC50 [2] of 200 nM.
